Columns and labels:
vanilla beans = assay: Vanillin content analysis by spectrophotometry of treated, cured vanilla beans; parameters: species or system Vanilla planifolia; conditions: relative to water control; FIG. 1; concentrations as in Table 1
Protocol: Target chemical compounds (set forth in table 1 below) were dissolved in water and pH adjusted to pH-7. Green beans cut into 1 cm pieces were placed in a 50 ml tube or intact beans placed in a bucket. A 10 ml solution containing one of the compounds indicated in Table 1 dissolved in water and 0.1% of each of the four surfactants tween 20, tween 80, span 20, and span 80 was added per each bean. The beans were incubated with the solution for 0.5-36 hours (e.g. overnight) at room temperature. The solution was the filtered out, the beans washed, and placed in a drying chamber with controlled temperature and humidity conditions to provide killing and curing as known in the art. The beans were weighted daily and at a 25-30% of their original weight, subjected to vanillin content analysis by spectrophotometry, as well as to a flavor test by a sensory panel.

Vanilla planifolia beans = assay: GC-MS headspace (SPME) analysis of treated vanilla beans (Example 2); conditions: for Phenylethyl Alcohol and 3-Phenyl-2-propenoic acid methyl ester / compounds giving a vinegar anisic and creamy flavor (acetic acid, creosol and 2,3-Butanediol): FIG. 3E, glutathione results not shown; for vanillin levels: GC-MS headspace vs control, FIG. 3A-3E; for constituents delivering vinegar anisic and floral flavors (acetic acid, creosol and acetoin): 3C
Source text: The treated vanilla beans were further analyzed by Gas Chromatography-Mass Spectrometry (GC-MS) in headspace mode with solid phase micro extraction (SPME) fiber. Compound identification was done by retention index and mass spectra. Compound flavor was obtained by searching a compound name in the following databases: https://pubchem.ncbi.nlm.nih.gov/ and […].com/.

Compound | vanillin content (abundance of vanillin) (vanilla beans) | Phenylethyl Alcohol and 3-Phenyl-2-propenoic acid methyl ester (Vanilla planifolia beans) | compounds giving a vinegar anisic and creamy flavor (acetic acid, creosol and 2,3-Butanediol) (Vanilla planifolia beans) | vanillin levels (Vanilla planifolia beans) | acetic acid, 2,3-Butanediol and acetoin (Vanilla planifolia beans; FIG. 3D) | level of compounds giving anisic and floral flavors (creosol and benzeneacetaldehyde) (Vanilla planifolia beans; FIG. 3D) | levels of constituents resulting in a nutty flavor (3-hydroxy-Benzaldehyde) (Vanilla planifolia beans; FIG. 3B) | constituents delivering vinegar anisic and floral flavors (acetic acid, creosol and acetoin) (Vanilla planifolia beans; FIG. 3B) | levels of constituents delivering a nutty coffee flavor (3-hydroxy-Benzaldehyde and 2-methyl-Butanal) (Vanilla planifolia beans; FIG. 3C)
N[C@@H](CCC(=O)N[C@@H](CS)C(=O)NCC(=O)O)C(=O)O [L- glutathione] | reduced vanillin content | induced the formation | reduced abundance | increase | – | – | – | – | –
N[C@@H](Cc1ccccc1)C(=O)O [L-Phenylalanine] | reduced vanillin content | induced the formation | reduced abundance | increase | – | – | – | – | –
CC(=O)C(=O)O [Pyruvic acid] | – | – | – | increase | formation | decreasing | – | – | –
O=C(O)c1ccccc1O [Salicylic acid] | large increase | – | – | marked increase | – | – | increased | decrease | –
Chitosan | – | – | – | milder increase | – | – | – | decrease | increased

Source: patent US20240196946A1, “METABOLICALLY MODIFIED VANILLA BEANS AND METHODS FOR PRODUCING SAME” (VANILLA TECHNOLOGIES LTD., priority 2021, published 2024)
